Measurements reported in US5017723A, “Substituted ethylamines, their preparation process, their use as medicine and their synthesising agents” (Jouveinal S.A., priority 1990, dated 1991).
Like-named read-outs stand apart in the source and are kept apart here.

Assays:
[1] = system: convulsion induced by picrotoxine in mice; test: Protection against picrotoxine-induced convulsion (suppression of the tonic extension phase); assay type: in vivo, male Swiss mice; conditions: for responders at 50 mg/kg / responders at 100 mg/kg / ED50: Mus musculus; for responders at 50 mg/kg: 0.5 h, read-out: i.p.: % prot. (percentage of protected animals), 50 mg/kg i.p., picrotoxine 24 mg/kg i.p. 30 min later; for responders at 100 mg/kg: 1 h, read-out: p.o.: % prot. (percentage of protected animals), 100 mg/kg p.o., picrotoxine 24 mg/kg i.p. 60 min later
From the text: The psychotropic properties of the compounds have been determined by the protection of the induced convulsion by picrotoxine for mice, which is achieved by the method derived from that of Krall et al., "Epilepsia", 1978, 19, p. 409-428.
The administration of picrotoxine caused a convulsive crisis in the animal characterised by a myoclonic extension syndrome followed by the extension of the limbs causing the animal to die. Certain substances, particularly those active on the complex GABA/benzodiazepines/Cl-ionophore makes it possible to protect the animals from this convulsive crisis.
In practice the study is carried out on batches of 10 male "Swiss" mice weighing approximately 20 g, which are administered with the product to be studied in aqueous solution either by intraperitoneal route (i.p.) at the rate of 50 mg/kg and in a volume of 0.2 ml of solution per animal, or by oral route (p.o) in a volume of 2.0 ml of solution per animal.
An injection of a solution of picrotoxine at the rate of 24 mg/kg in a volume of 0.2 ml per animal is then administered by interperitoneal route, either 30 minutes after administering the product by interperitoneal route or 60 minutes after administering the product by oral route. The dose of the product injected causing a clonic crisis, which results in untreated animals dying. The suppression of the extension tonic phase in the animals treated under the conditions of the test is observed. The results are expressed:
either in percentages of protected animals of this phase to the reaction of 50 mg/kg of the compound of the study administered by i.p. route or 100 mg/kg by p.o route,
or in DE50 for each of these routes, which is the efficient dosage of the test compound expressed in mg/kg protecting 50% of the animals of this extension phase. The significant value of the results being generally indicated in the following manner:
* Significant result at p<0.05
** Significant result at p<0.01
*** Significant highly significant at p<0.001.

[2] = target: opiated mu receptor (Cavia porcellus, UniProt A0ACM8Q262); assay type: binding, guinea pig
opiated mu receptor, sequence (A0ACM8Q262 1-400): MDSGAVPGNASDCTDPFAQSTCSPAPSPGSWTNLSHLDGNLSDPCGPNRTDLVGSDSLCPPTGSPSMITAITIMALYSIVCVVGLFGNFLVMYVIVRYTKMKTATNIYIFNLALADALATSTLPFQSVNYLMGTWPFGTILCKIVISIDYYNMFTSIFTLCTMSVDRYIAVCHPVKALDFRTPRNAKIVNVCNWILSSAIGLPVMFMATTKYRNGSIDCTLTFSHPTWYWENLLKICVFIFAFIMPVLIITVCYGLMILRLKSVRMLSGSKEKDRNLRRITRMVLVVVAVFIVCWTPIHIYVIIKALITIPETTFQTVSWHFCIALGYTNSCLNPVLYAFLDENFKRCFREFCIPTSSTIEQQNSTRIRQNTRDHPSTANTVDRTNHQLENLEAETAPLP
Procedure: (§1) The analysis is carried out in accordance with the technique described by F. Roman et al. in J. Pharm. Pharmcol. 1987, 39, p. 404-407 which consists of analysing the displacement of specific radioactive ligands of the opiated mu, delta and kappa sub receptors by the action of the test products on the membranous receptors of a guinea pig.

[3] = target: T1, opiated kappa receptor (Cavia porcellus, UniProt P41144); test: Displacement of specific radioactive ligands, opiated kappa receptor; assay type: binding, guinea pig; conditions: inhibition of 50% of radioligand bonds; read-out: CI50 affinity kappa rec.
T1 construct: membranous receptors of a guinea pig; from tissue
T1 sequence (P41144 whole entry): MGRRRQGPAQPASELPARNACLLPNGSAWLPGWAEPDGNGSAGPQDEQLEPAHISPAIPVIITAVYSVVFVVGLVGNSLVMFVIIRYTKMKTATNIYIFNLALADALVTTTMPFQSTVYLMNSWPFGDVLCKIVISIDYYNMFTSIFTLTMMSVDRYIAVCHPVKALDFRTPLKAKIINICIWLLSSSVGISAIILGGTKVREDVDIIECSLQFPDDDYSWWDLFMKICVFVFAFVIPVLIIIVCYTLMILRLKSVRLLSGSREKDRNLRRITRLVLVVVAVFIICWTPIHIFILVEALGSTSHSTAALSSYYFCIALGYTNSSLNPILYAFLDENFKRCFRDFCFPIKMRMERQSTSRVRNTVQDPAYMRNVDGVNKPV
Procedure: as §1

[4] = system: bladder of the rat; test: Transvesical cystomanometry on wide awake rat (urological activity); assay type: in vivo, female rat; conditions: for activity on the urinary tract compared to the reference compounds (in words): compared to Dicyclomine and Baclofen; for change in vivo at 2.5 mg/kg / change in vivo at 5 mg/kg: Rattus norvegicus, iv; for change in vivo at 5 mg/kg: 5,0 mg/kg i.v.
Procedure: Studies by a similar method of operation, the compounds of the invention (I.A) which show a mu and kappa affinity also have an activity on certain functional parameters of the bladder of the rat which justifies their interest in the treatment of dysfunctions in the urinary tract.
The study carried out consists of transvesical cystomanometry on a wide awake rat. The following was measured during the storage and emission phases of urine under continuous intervesical perfusion of sterile physiological serum:
the "threshold pressure", which is the intervesical pressure immediately preceding the contraction phase of the detrusor
the volume of each urinary emission.
The technique used in the female rat consisted of preparing the animals 48 hours before the actual experiment by effecting the implantation of two catheters in the apex of the bladder and one catheter in the left-hand jugular vein under anaesthetic, with the external end of these catheters being protected and held by a sticking plaster corset.
The animals were placed in suitable cages at the time of the test, which were equipped so as to collect and measure the urine. For each animal one vesical catheter was connected to a pressure sensor, the other to a perfusor which supplied 0.2 ml/min. of sterile physiological serum continuously.
The intravesical pressure was measured continuously during the perfusion and it was possible to observe:
a filling phase of the bladder during which the pressure increased progressively,
a sudden rising phase of this pressure during the contraction of the detrusor: the "threshold" pressure which is the pressure observed just before the pressure of the contraction phase. This threshold pressure was raised in the same way as the urinary volume at each urination.
The study consisted of observing the changes in these parameters by the action of the products (IA) which were administered in solution by intravenous route by means of the catheter placed in the left jugular vein.
Dicyclomine and Baclofen which have been considered for the treatment of hyperactive bladders (Drugs of Today, Vol. 24, no. 5, 1988, p. 337-348) were also used in this test in the form of comparison products.

[5] = target: T2, opiated delta receptor (Cavia porcellus, UniProt A0A286XTF2); test: Displacement of specific radioactive ligands, opiated delta receptor; assay type: binding, guinea pig; conditions: inhibition of 50% of radioligand bonds; read-out: CI50 affinity delta rec.
T2 construct: membranous receptors of a guinea pig; from tissue
T2 sequence (A0A286XTF2 1-366): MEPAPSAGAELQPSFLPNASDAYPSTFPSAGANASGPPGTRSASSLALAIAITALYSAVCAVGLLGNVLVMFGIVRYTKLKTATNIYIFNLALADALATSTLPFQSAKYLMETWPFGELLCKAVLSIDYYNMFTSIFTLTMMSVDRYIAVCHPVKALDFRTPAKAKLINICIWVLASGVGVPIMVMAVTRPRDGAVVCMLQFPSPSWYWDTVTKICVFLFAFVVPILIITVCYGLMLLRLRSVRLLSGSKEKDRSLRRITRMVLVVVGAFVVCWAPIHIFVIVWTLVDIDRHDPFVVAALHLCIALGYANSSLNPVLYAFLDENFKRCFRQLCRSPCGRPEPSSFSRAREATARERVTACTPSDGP
Procedure: as §1

[6] = ip, * p<0.05, ** p<0.01, *** p<0.001
[7] = po, * p<0.05, ** p<0.01, *** p<0.001
[8] = inhibition of 50% of radioligand bonds; read-out: CI50 affinity mu rec.
[9] = read-out: % variation pressure threshold

SMILES | responders at 50 mg/kg [1, 6] [%] | responders at 100 mg/kg [1, 7] [%] | IC50 [2, 8] [nM] | IC50 [3] [nM] | further results
CCC(CC=Cc1ccccc1)(c1ccc(Cl)cc1)N(C)C (single isomer, unassigned; (+)) [Example 52, (+) a-cinnamyl-N,N-dimethyl-a-ethyl-p.chlorobenzylamine] | 70 | 90 | 7 | 99 | activity on the urinary tract compared to the reference compounds (in words) [4]: important activity
CCC(N)(CC=Cc1ccccc1)c1ccc(Cl)cc1 (single isomer, unassigned; (-)) [Example 17B, (-)a-cinnamyl-a-ethyl-p.chlorobenzylamine] | – | – | 11.4 | – | i.p.: % prot. (percentage of protected animals) ([1]; 50 mg/kg i.p., picrotoxine 24 mg/kg i.p. 30 min later, * p<0.05, ** p<0.01, *** p<0.001): 80%; p.o.: % prot. (percentage of protected animals) ([1]; 100 mg/kg p.o., picrotoxine 24 mg/kg i.p. 60 min later, * p<0.05, ** p<0.01, *** p<0.001): 50%
NCC(CC(=O)O)c1ccc(Cl)cc1 (stereo not drawn) [Baclofen, reference compound] | – | – | – | – | change in vivo at 2.5 mg/kg [4, 9]: 113%; change in vivo at 2.5 mg/kg ([4]; read-out: % variation volume): 32%; activity on the urinary tract compared to the reference compounds (in words) [4]: most active comparative product in these tests
CCN(CC)CCOC(=O)C1(C2CCCCC2)CCCCC1 [Dicyclomine, reference compound] | – | – | – | – | change in vivo at 2.5 mg/kg ([4]; 2,5 mg/kg i.v., read-out: % variation pressure threshold): 28%; change in vivo at 2.5 mg/kg ([4]; 2,5 mg/kg i.v., read-out: % variation volume): 20%
CCC(CC=Cc1ccccc1)(NC)c1ccc(Cl)cc1 (stereo not drawn) [Example 19, a-cinnamyl-a-ethyl-N-methyl-p.chlorobenzylamine] | 70 | – | 200 | 264 | IC50 [5]: 3490 nM; change in vivo at 5 mg/kg [4, 9]: 354%; change in vivo at 5 mg/kg ([4]; read-out: % variation volume): 54%
CNC(CC=Cc1ccc(Cl)c(Cl)c1)(c1ccccc1)C(C)C (stereo not drawn) [Example 23, a-(3',4'-dichloro)cinnamyl-a-isopropyl-N-methyl-benzylamine] | 60 | 100 | 80 | 340 | IC50 [5]: 1380 nM; change in vivo at 5 mg/kg [4, 9]: 196%; change in vivo at 5 mg/kg ([4]; read-out: % variation volume): 35%
CCC(CC=Cc1ccc(Cl)c(Cl)c1)(NC)c1ccc(C)cc1 (stereo not drawn) [Example 24, a-(3',4'-dichloro)cinnamyl-a-ethyl-N-methyl-p.methylbenzylamin] | – | – | 21 | 410 | p.o.: DE50 ([1]; p.o. route, value printed with a % sign): 73,5%; IC50 [5]: 1400 nM
CCC(CC=Cc1ccc(Cl)c(Cl)c1)(NC)c1ccc(OC)cc1 (stereo not drawn) [Example 25, a-(3',4'-dichloro)cinnamyl-a-ethyl-N-methyl-p.methoxybenzylamine] | – | 50 | 56 | 875 | IC50 [5]: 1590 nM; change in vivo at 5 mg/kg [4, 9]: 85%; change in vivo at 5 mg/kg ([4]; read-out: % variation volume): 67%
CCC(CC=Cc1ccc(Cl)c(Cl)c1)(NC)c1ccc(Cl)cc1 (stereo not drawn) [Example 26, a-(3' ,4'-dichloro)cinnamyl-a-ethyl-N-methyl-p.chlorobenzylamine] | – | – | 28 | 458 | IC50 [5]: 1070 nM; change in vivo at 5 mg/kg [4, 9]: 229%; change in vivo at 5 mg/kg ([4]; read-out: % variation volume): 93%
CCC(CC=Cc1ccccc1)(c1ccc(C)cc1)N(C)C (stereo not drawn) [Example 33] | – | – | – | 120 | IC50 ([2]; read-out: CI50 affinity mu rec.; inhibition of 50% of radioligand bonds): 50 nM; IC50 [5]: 1230 nM; activity on the urinary tract compared to the reference compounds (in words) [4]: important activity
CCC(CC=Cc1cc(OC)c(OC)c(OC)c1)(c1ccccc1)N(C)C (stereo not drawn) [Example 37] | – | – | 100 | 230 | IC50 [5]: 150 nM; change in vivo at 5 mg/kg [4, 9]: 188%; change in vivo at 5 mg/kg ([4]; read-out: % variation volume): 53%
CCCCCC(CC=Cc1ccccc1)(c1ccccc1)N(C)C (stereo not drawn) [Example 42, a-cinnamyl-N,N-dimethyl-a-pentyl-benzylamine] | – | – | – | – | ED50 ([1]; po, read-out: p.o.: DE50): 65 mg/kg
CCCN(C)C(CC)(CC=Cc1ccccc1)c1ccccc1 (stereo not drawn) [Example 47, a-cinnamyl-a-ethyl-N-methyl-N-propylbenzylamine] | – | – | – | – | ED50 ([1]; ip, read-out: i.p.: DE50): 58.2 mg/kg; ED50 ([1]; po, read-out: p.o.: DE50): 65 mg/kg
CN(C)C(C)(CC=Cc1ccc(Cl)c(Cl)c1)c1ccccc1 (stereo not drawn) [Example 48, a-(3.4 dichloro)cinnamyl-N,N-dimethyl-a-methyl-benzylamine] | 90 | – | – | – | –
CCC(CC=Cc1cccs1)(c1ccccc1)N(C)C (stereo not drawn) [Example 55, N,N-dimethyl-a-ethyl-a-[30(2-thienyl)-2-propenyl]-benzylamine] | 70 | 70 | – | – | –
CCC(CC=Cc1ccsc1)(c1ccccc1)N(C)C (stereo not drawn) [Example 56, N,N-dimethyl-a-ethyl-a-[30(3-thienyl)-2-propenyl]-benzylamine] | 70 | 80 | – | – | –
CCC(CC=Cc1ccccc1)(c1ccco1)N(C)C (stereo not drawn) [Example 59, a-cinnamyl-N,N-dimethyl-a-ethyl-2-furfurylamine] | 90 | 100 | – | – | –
CCC(CC=Cc1cccs1)(c1ccco1)N(C)C (stereo not drawn) [Example 61, N,N-dimethyl-a-ethyl-a-[3-(2-thienyl)-2-propenyl]-2-furfurylamine] | 50 | – | – | – | –
CCC(CC=Cc1ccccc1)(c1cccs1)N(C)C (stereo not drawn) [Example 62, a-cinnamyl-N,N-dimethyl-a-ethyl-2-thienylmethylamine] | – | 80 | – | – | –
CCC(CC=Cc1ccco1)(c1cccs1)N(C)C (stereo not drawn) [Example 64, N,N-dimethyl-a-ethyl-a-[3-(2-furyl)-2-propenyl]-2-thienylmethylamine] | 70 | 50 | – | – | –
CCC(CC=Cc1cccs1)(c1cccs1)N(C)C (stereo not drawn) [Example 65, N,N-dimethyl-a-ethyl-a-[3-(2-thienyl)-2-propenyl]-2-thienylmethylamine] | 90 | 50 | – | – | –
CCC(CC=Cc1ccccc1)(c1ccsc1)N(C)C (stereo not drawn) [Example 67, a-cinnamyl-N,N-dimethyl-a-ethyl-3-thienylmethylamine] | 70 | 100 | – | – | –
CCC(CC=Cc1cccs1)(c1ccsc1)N(C)C (stereo not drawn) [Example 69, N,N-dimethyl-a-ethyl-a-[3-(2-thienyl)-2-propenyl]-3-thienylmethylamine] | 90 | 80 | – | – | –
CCC(CC=Cc1ccsc1)(c1ccsc1)N(C)C (stereo not drawn) [Example 70, N.N-dimethyl-a-ethyl-a-[3-(3-thienyl)-2-propenyl]-3-thienylmethylamine] | 80 | 100 | – | – | –
